Data from patent US8318953B2, “Reactive coumarin derivatives and their use in cellular analyses” (AAT Bioquest, Inc., priority 2010, dated 2012).

Assays:
intracellular esterases = assay: Relative stability and cleavage by intracellular esterases
From the text: Chemically reactive enzyme substrate compounds will covalently attach to a corresponding functional group of cell components, forming the complexes of enzyme substrates-cell components or enzyme products-cell components. Using enzyme substrate compounds to label reactive sites on the surface of cells, in cell membranes or in intracellular compartments such as organelles, or in the cell's cytoplasm, permits the determination of their presence or quantity, accessibility, or their spatial and temporal distribution in the sample. […] Photoreactive enzyme substrates can be used similarly to photolabel components of the outer membrane of biological cells or as photo-fixable polar tracers for cells.

CPA cells = assay: Absorption and emission spectra of cell lysates after incubating cells with the substrate; format: cell-based; conditions: CPA cells incubated with compound (5 μM) for 1 h, lysed with 1% Triton X-100; pH=9.0 buffer
Experimental: CPA cells are incubated with Compound ES1 (5 μM) for 1 h, and lysed with 1% Triton® X-100. The cell lysates from the enzymatic hydrolysis of Compound ES1 have a maximum absorption around 409 nm, which matches very well the 405 nm violet laser excitation of a typical flow cytometer.
CPA cells are incubated with Compound ES7 (5 μM) for 1 h, and lysed with 1% Triton® X-100. The cell lysates from the enzymatic hydrolysis of ES7 have a maximum absorption around 416 nm, which matches very well the 405 nm violet laser excitation of a typical flow cytometer.

Jurkat cells = assay: Flow cytometric monitoring of cell proliferation after dye loading; format: cell-based; conditions: Jurkat cells loaded with 5 μM dye loading solution at 37° C. for 1 hour; flow cytometric analysis
Experimental: Compound ES 9 is dissolved in anhydrous DMSO to make 5 mM stock solution, and diluted in PBS buffer to make 5 μM dye loading solution. Jurkat cells are loaded with the dye loading solution of Compound ES9 at 37° C. for 1 hour. The cells are washed with PBS buffer to remove serum. The resulted cells are cultured and passed for flow cytometric analysis as desired. Compound ES9 is used to monitor cell proliferation of nine passages.
ES compounds are retained by cells and shared by the daughter cells at each division, resulting in multimodal flow cytometric ES staining histograms, with each cell generation clustering around half the fluorescence intensity of the previous one. ES compounds are dissolved in anhydrous DMSO, and the stock solutions are used promptly. To prepare the cell working solutions (from 1 to 100 μM) the DMSO stock solutions of ES compounds are diluted with Hanks and 20 mM Hepes buffer (HHBS, pH 7 with 0.02% PF-127). The Jurkat cells are treated with test compounds for a desired period of time, and centrifuged give 1-5×10^5 cells per tube. The cells are resuspended in 500 μL of the ES compound working solutions, and incubated at room temperature or 37° C. for 5 to 10 min. […] The fluorescence of ES compound staining are monitored at Ex/Em=405/450 nm, 405/500 nm or 405/550 nm with a fluorescence microscope or a flow cytometer.

## CC(=O)OCOc1c(Cl)cc2cc(C(=O)ON3C(=O)CCC3=O)c(=O)oc2c1Cl [Compound 5]
Intracellular esterases
  stability relative to Compound ES 18: more stable than Compound ES 18

## CC(=O)Oc1cc2oc(=O)c(-c3ccc(CCCCCC(=O)ON4C(=O)CCC4=O)s3)cc2cc1Cl [Compound 9]
Intracellular esterases
  stability relative to Compound ES 18: more stable than Compound ES 18

## CC(=O)Oc1cc2oc(=O)c(-c3ccc(CCCCCC(=O)NCCN4C(=O)C=CC4=O)s3)cc2cc1Cl [Compound 10]
Intracellular esterases
  stability relative to Compound ES 18: more stable than Compound ES 18

## CC(=O)Oc1cc2oc(=O)c(C(=O)ON3C(=O)CCC3=O)cc2cc1Cl [ES1]
Intracellular esterases
  stability relative to Compound ES 18: more stable than Compound ES 18
CPA cells
  maximum absorption of cell lysates from the enzymatic hydrolysis: around 409 nm

## CC(=O)Oc1c(Cl)cc2cc(C(=O)NCCCCCN3C(=O)C=CC3=O)c(=O)oc2c1F [ES7]
CPA cells
  maximum absorption of cell lysates from the enzymatic hydrolysis: around 416 nm

## CC(=O)Oc1cc2oc(=O)c(-c3ccc(CCCCCC(=O)ON4C(=O)CCC4=O)s3)cc2cc1Cl [ES9]
Jurkat cells
  passages over which cell proliferation is monitored: nine

## CC(=O)Oc1c(F)cc2cc(C(=O)ON3C(=O)CCC3=O)c(=O)oc2c1F [ES18]
Intracellular esterases
  cleavage by intracellular esterases: cleaved by intracellular esterases more slowly
